Experimental data: US4463173A, “Cephalosporin derivatives” (ICI Pharma, priority 1979, dated 1984)
Converted amounts (≈) assume the structure as drawn.

How the values were obtained:
K. aerogenes = assay: MIC by agar-dilution technique, K. aerogenes A10; assay type: cell-based; settings: Klebsiella aerogenes, No. Code A10, inoculum ~10^5 CFU
Description: (§1) As noted above the cephalosporin derivatives of the invention have antibacterial properties. Thus they are useful antibacterial agents, many of them having a broad spectrum of activity in vitro, against standard laboratory microorganisms, both Gram-negative and Gram-positive, which are used to screen for activity against pathogenic bacteria. The antibacterial spectrum and potency of a particular compound may be determined in a standard test system. […] The antibacterial activity is described in terms of the minimum inhibitory concentration (MIC) determined by agar-dilution technique with an inoculum size of ~10^5 CFU.

E. coli = assay: MIC by agar-dilution technique, E. coli A8; assay type: cell-based; settings: Escherichia coli, No. Code A8, inoculum ~10^5 CFU
Description: as §1

Proteus mirabilis = assay: MIC by agar-dilution technique, Proteus mirabilis A18; assay type: cell-based; settings: No. Code A18, inoculum ~10^5 CFU
Description: as §1

Serratia marescens = assay: MIC by agar-dilution technique, Serratia marescens A16; assay type: cell-based; settings: No. Code A16, inoculum ~10^5 CFU
Description: as §1

Ps. aeruginosa = assay: MIC by agar-dilution technique, Ps. aeruginosa A21; assay type: cell-based; settings: Pseudomonas aeruginosa, No. Code A21, inoculum ~10^5 CFU
Description: as §1

Strep. pyogenes = assay: MIC by agar-dilution technique, Strep. pyogenes A1; assay type: cell-based; settings: Streptococcus pyogenes, No. Code A1, inoculum ~10^5 CFU
Description: as §1

Staph. aureus = assay: MIC by agar-dilution technique, Staph. aureus A6; assay type: cell-based; settings: Staphylococcus aureus, No. Code A6, inoculum ~10^5 CFU
Description: as §1

Ent. cloacae = assay: MIC by agar-dilution technique, Ent. cloacae A13; assay type: cell-based; settings: Enterobacter cloacae, No. Code A13, inoculum ~10^5 CFU
Description: as §1

[1] = overt toxic symptoms or side effects in mice; assay type: in vivo; settings: single dose of 2 g./kg.
Experimental: Similarly the compound 7-(imidazol-2-yl)amino-3-(2-methyl-1,3,4-thiadiazol-5-yl)thiomethylceph-3- em-4-carboxylic acid was administered both orally and subcutaneously to mice at a single dose of 2 g./kg.

bacterial infection = assay: mouse protection test (PD50); assay type: in vivo; settings: subcutaneous

Compound | MIC (K. aerogenes) | MIC (E. coli) | MIC (Proteus mirabilis) | MIC (Serratia marescens) | MIC (Ps. aeruginosa) | MIC (Strep. pyogenes) | MIC (Staph. aureus) | MIC (Ent. cloacae) | dose relative to minimum effective dose which protected 50% of the mice against bacterial infection (PD50) (bacterial infection; dose 100 mg./kg.) | other results
CC(=O)OCC1=C(C(=O)O)N2C(=O)[C@@H](Nc3ncc[nH]3)[C@H]2SC1 [drawing 38] | 0.5 µg/mL (≈ 1.48 µM) | 0.12 µg/mL (≈ 0.355 µM) | 32 µg/mL (≈ 94.6 µM) | 1 µg/mL (≈ 2.96 µM) | > 256 µg/mL | 16 µg/mL (≈ 47.3 µM) | 32 µg/mL (≈ 94.6 µM) | 4 µg/mL (≈ 11.8 µM) |  | 
CC1=C(C(=O)O)N2C(=O)[C@@H](NC3=NCCN3)[C@H]2SC1 | 8 µg/mL (≈ 28.3 µM) | 8 µg/mL (≈ 28.3 µM) | 256 µg/mL (≈ 907 µM) | 32 µg/mL (≈ 113 µM) | > 256 µg/mL | 256 µg/mL (≈ 907 µM) | > 256 µg/mL | 8 µg/mL (≈ 28.3 µM) |  | 
Cc1nnc(SCC2=C(C(=O)O)N3C(=O)[C@@H](Nc4ncc[nH]4)[C@H]3SC2)s1 [7-(imidazol-2-yl)amino-3-(2-methyl-1,3,4-thiadiazol-5-yl)thiomethylceph-3-em-4-carboxylic acid] |  |  |  |  |  |  |  |  |  | overt toxic symptoms or side effects ([1]; oral): no overt toxic symptoms or side effects were noted; overt toxic symptoms or side effects ([1]; subcutaneous): no overt toxic symptoms or side effects were noted
Cn1nnnc1SCC1=C(C(=O)O)N2C(=O)[C@@H](Nc3ncc[nH]3)[C@H]2SC1 [7-(imidazol-2-yl)amino-3-(1H-1-methyltetrazol-5-yl)thiomethylceph-3-em-4-carboxylic acid] |  |  |  |  |  |  |  |  | at least ten times | 
CC(=O)OCC1=C(C(=O)O)N2C(=O)[C@@H](Nc3nc4c(O)cccc4[nH]3)[C@H]2SC1 [3-acetoxymethyl-7-(4-hydroxybenzimidazol-2-yl)aminoceph-3-em-4-carboxylic acid] |  |  |  |  |  |  |  |  |  | dose relative to minimum effective dose which protected 50% of the mice against bacterial infection (PD50) (bacterial infection; dose 200 mg./kg.): at least ten times
CC(=O)OCC1=C(C(=O)O)N2C(=O)[C@@H](Nc3ncc[nH]3)[C@H]2SC1 [3-acetoxymethyl-7-imidazol-2-yl)aminoceph-3-em-4-carboxylic acid] |  |  |  |  |  |  |  |  | at least ten times | 
CC(=O)OCC1=C(C(=O)O)N2C(=O)[C@@H](Nc3nc4ccccc4[nH]3)[C@H]2SC1 | 4 µg/mL (≈ 10.3 µM) | 2 µg/mL (≈ 5.15 µM) | 4 µg/mL (≈ 10.3 µM) | 64 µg/mL (≈ 165 µM) | > 64 µg/mL | 2 µg/mL (≈ 5.15 µM) | 2 µg/mL (≈ 5.15 µM) | > 64 µg/mL |  | 
CC(=O)OCC1=C(C(=O)O)N2C(=O)[C@@H](Nc3nc(-c4ccc(N(C)C)cc4)c[nH]3)[C@H]2SC1 [3-acetoxymethyl-7-[4-(4-dimethylamino)phenylimidazol-2-yl]aminoceph-3-em-4-carboxylic acid] |  |  |  |  |  |  |  |  | at least ten times | 
